From BindingDB's records for doi:10.1021/jm980217s (Abbott Laboratories, 1998) come the findings set out here.

The experiment can be described thus: Binding affinity for endothelin B receptor by measuring its ability to displace [125I]-ET-3 from porcine cerebellar tissue.
In general, IC50 refers to the point on the concentration scale where inhibition reaches its midpoint. In the case of `C=CCCC[C@H]1[C@H](C(=O)O)[C@@H](c2ccc3c(c2)OCO3)CN1CC(=O)N(CCCC)CCCC` [(2S,3R,4S)-4-Benzo[1,3]dioxol-5-yl-1-dibutylcarbamoylmethyl-2-pent-4-enyl-pyrrolidine-3-carboxylic acid], the IC50 worked out at 60 µM.

On to `CCCCN(CCCC)C(=O)CN1C[C@H](c2ccc3c(c2)OCO3)[C@@H](C(=O)O)[C@@H]1CCN1CCCCC1=O` [(2S,3R,4S)-4-Benzo[1,3]dioxol-5-yl-1-dibutylcarbamoylmethyl-2-[2-(2-oxo-piperidin-1-yl)-ethyl]-pyrrolidine-3-carboxylic acid], for which the IC50 was found to be 85 µM. `CCCCN(CCCC)C(=O)CN1C[C@H](c2ccc3c(c2)OCO3)[C@@H](C(=O)O)[C@@H]1CCc1ccccn1` [(2S,3R,4S)-4-Benzo[1,3]dioxol-5-yl-1-dibutylcarbamoylmethyl-2-(2-pyridin-2-yl-ethyl)-pyrrolidine-3-carboxylic acid] had an IC50 of 14.1 µM.

Regarding `CCCCN(CCCC)C(=O)CN1C[C@H](c2ccc3c(c2)OCO3)[C@@H](C(=O)O)[C@@H]1CCc1ncco1` [(2S,3R,4S)-4-Benzo[1,3]dioxol-5-yl-1-dibutylcarbamoylmethyl-2-(2-oxazol-2-yl-ethyl)-pyrrolidine-3-carboxylic acid], the IC50 is over 100 µM. Take `CCCCN(CCCC)C(=O)CN1C[C@H](c2ccc3c(c2)OCO3)[C@@H](C(=O)O)[C@@H]1CC(C)(C)C1OCCO1` [(2S,3R,4S)-4-Benzo[1,3]dioxol-5-yl-1-dibutylcarbamoylmethyl-2-(2-[1,3]dioxolan-2-yl-2-methyl-propyl)-pyrrolidine-3-carboxylic acid]: the IC50 is over 100 µM. Take `CCCCN(CCCC)C(=O)CN1C[C@H](c2ccc3c(c2)OCO3)[C@@H](C(=O)O)[C@@H]1CCN1C(=O)CCC1=O` [(2S,3R,4S)-4-Benzo[1,3]dioxol-5-yl-1-dibutylcarbamoylmethyl-2-[2-(2,5-dioxo-pyrrolidin-1-yl)-ethyl]-pyrrolidine-3-carboxylic acid]: the IC50 was over 100 µM. As for `CCCCC[C@H]1[C@H](C(=O)O)[C@@H](c2ccc3c(c2)OCO3)CN1CC(=O)N(CCCC)CCCC` [(2S,3R,4S)-4-Benzo[1,3]dioxol-5-yl-1-dibutylcarbamoylmethyl-2-pentyl-pyrrolidine-3-carboxylic acid], the figure is 47 µM. For `CCCCN(CCCC)C(=O)CN1C[C@H](c2ccc3c(c2)OCO3)[C@@H](C(=O)O)[C@@H]1CCCC(C)C` [(2S,3R,4S)-4-Benzo[1,3]dioxol-5-yl-1-dibutylcarbamoylmethyl-2-(4-methyl-pentyl)-pyrrolidine-3-carboxylic acid], the IC50 worked out at 35.8 µM. Then `CCCCN(CCCC)C(=O)CN1C[C@H](c2ccc3c(c2)OCO3)[C@@H](C(=O)O)[C@@H]1CCN1CCCC1=O` [(2S,3R,4S)-4-Benzo[1,3]dioxol-5-yl-1-dibutylcarbamoylmethyl-2-[2-(2-oxo-pyrrolidin-1-yl)-ethyl]-pyrrolidine-3-carboxylic acid], with 65.4 µM; and `CCCCN(CCCC)C(=O)CN1C[C@H](c2ccc3c(c2)OCO3)[C@@H](C(=O)O)[C@@H]1CCC1OCCCO1` [(2S,3R,4S)-4-Benzo[1,3]dioxol-5-yl-1-dibutylcarbamoylmethyl-2-(2-[1,3]dioxan-2-yl-ethyl)-pyrrolidine-3-carboxylic acid], with 62 µM; and `CCCCN(CCCC)C(=O)CN1C[C@H](c2ccc3c(c2)OCO3)[C@@H](C(=O)O)[C@@H]1C(C)(C)CCCC` [(2R,3R,4S)-4-Benzo[1,3]dioxol-5-yl-1-dibutylcarbamoylmethyl-2-(1,1-dimethyl-pentyl)-pyrrolidine-3-carboxylic acid], with 36 µM.

As to `CCCCN(CCCC)C(=O)CN1C[C@H](c2ccc3c(c2)OCO3)[C@@H](C(=O)O)[C@@H]1CCc1ccoc1` [(2S,3R,4S)-4-Benzo[1,3]dioxol-5-yl-1-dibutylcarbamoylmethyl-2-(2-furan-3-yl-ethyl)-pyrrolidine-3-carboxylic acid], the IC50 was determined as 26 µM. The IC50 values of the last two compounds are within 1.5-fold of each other. As for `CCCCN(CCCC)C(=O)CN1C[C@H](c2ccc3c(c2)OCO3)[C@@H](C(=O)O)[C@@H]1CCc1nc(C)c(C)o1` [(2S,3R,4S)-4-Benzo[1,3]dioxol-5-yl-1-dibutylcarbamoylmethyl-2-[2-(4,5-dimethyl-oxazol-2-yl)-ethyl]-pyrrolidine-3-carboxylic acid], the figure is 29.7 µM; as for `CCCCN(CCCC)C(=O)CN1C[C@H](c2ccc3c(c2)OCO3)[C@@H](C(=O)O)[C@@H]1CCC=C1CC1` [(2S,3R,4S)-4-Benzo[1,3]dioxol-5-yl-2-(3-cyclopropylidene-propyl)-1-dibutylcarbamoylmethyl-pyrrolidine-3-carboxylic acid], 10 µM. Then `CCCCN(CCCC)C(=O)CN1C[C@H](c2ccc3c(c2)OCO3)[C@@H](C(=O)O)[C@@H]1CCC=C(C)C` [(2S,3R,4S)-4-Benzo[1,3]dioxol-5-yl-1-dibutylcarbamoylmethyl-2-(4-methyl-pent-3-enyl)-pyrrolidine-3-carboxylic acid], with 33.2 µM; and `CCCCN(CCCC)C(=O)CN1C[C@H](c2ccc3c(c2)OCO3)[C@@H](C(=O)O)[C@@H]1CCCCC(F)(F)F` [(2S,3R,4S)-4-Benzo[1,3]dioxol-5-yl-1-dibutylcarbamoylmethyl-2-(5,5,5-trifluoro-pentyl)-pyrrolidine-3-carboxylic acid], with 34 µM; and `CCCCN(CCCC)C(=O)CN1C[C@H](c2ccc3c(c2)OCO3)[C@@H](C(=O)O)[C@@H]1CCn1cccn1` [(2S,3R,4S)-4-Benzo[1,3]dioxol-5-yl-1-dibutylcarbamoylmethyl-2-(2-pyrazol-1-yl-ethyl)-pyrrolidine-3-carboxylic acid], with 28.6 µM. As for `C/C=C(\C)CC[C@H]1[C@H](C(=O)O)[C@@H](c2ccc3c(c2)OCO3)CN1CC(=O)N(CCCC)CCCC` [(2S,3R,4S)-4-Benzo[1,3]dioxol-5-yl-1-dibutylcarbamoylmethyl-2-((E)-3-methyl-pent-3-enyl)-pyrrolidine-3-carboxylic acid], the figure is 48 µM; as for `CCCCN(CCCC)C(=O)CN1C[C@H](c2ccc3c(c2)OCO3)[C@@H](C(=O)O)[C@@H]1CCC1OC(C)C(C)O1` (stereo partly drawn) [(2S,3R,4S)-4-Benzo[1,3]dioxol-5-yl-1-dibutylcarbamoylmethyl-2-[2-(4,5-dimethyl-[1,3]dioxolan-2-yl)-ethyl]-pyrrolidine-3-carboxylic acid], 48 µM; as for `CCCCN(CCCC)C(=O)CN1C[C@H](c2ccc3c(c2)OCO3)[C@@H](C(=O)O)[C@@H]1CCC1SCCS1` [(2S,3R,4S)-4-Benzo[1,3]dioxol-5-yl-1-dibutylcarbamoylmethyl-2-(2-[1,3]dithiolan-2-yl-ethyl)-pyrrolidine-3-carboxylic acid], 29.3 µM. `CCCCN(CCCC)C(=O)CN1C[C@H](c2ccc3c(c2)OCO3)[C@@H](C(=O)O)[C@@H]1CCC1OCCO1` [(2S,3R,4S)-4-Benzo[1,3]dioxol-5-yl-1-dibutylcarbamoylmethyl-2-(2-[1,3]dioxolan-2-yl-ethyl)-pyrrolidine-3-carboxylic acid] returned an IC50 of over 100 µM. As for `CCCCN(CCCC)C(=O)CN1C[C@H](c2ccc3c(c2)OCO3)[C@@H](C(=O)O)[C@@H]1CCc1cccn1C` [(2S,3R,4S)-4-Benzo[1,3]dioxol-5-yl-1-dibutylcarbamoylmethyl-2-[2-(1-methyl-1H-pyrrol-2-yl)-ethyl]-pyrrolidine-3-carboxylic acid], the figure is 43.6 µM; as for `CCCCN(CCCC)C(=O)CN1C[C@H](c2ccc3c(c2)OCO3)[C@@H](C(=O)O)[C@@H]1CC(C)(C)CCC` [(2S,3R,4S)-4-Benzo[1,3]dioxol-5-yl-1-dibutylcarbamoylmethyl-2-(2,2-dimethyl-pentyl)-pyrrolidine-3-carboxylic acid], 62 µM. As for `C=C(C)CCC[C@H]1[C@H](C(=O)O)[C@@H](c2ccc3c(c2)OCO3)CN1CC(=O)N(CCCC)CCCC` [(2S,3R,4S)-4-Benzo[1,3]dioxol-5-yl-1-dibutylcarbamoylmethyl-2-(4-methyl-pent-4-enyl)-pyrrolidine-3-carboxylic acid], the figure is 36 µM.

In turn, `CCCCN(CCCC)C(=O)CN1C[C@H](c2ccc3c(c2)OCO3)[C@@H](C(=O)O)[C@@H]1CC(C)(C)C=C(C)C` [(2S,3R,4S)-4-Benzo[1,3]dioxol-5-yl-1-dibutylcarbamoylmethyl-2-(2,2,4-trimethyl-pent-3-enyl)-pyrrolidine-3-carboxylic acid] had an IC50 of 64 µM.

Turning to `CCCCN(CCCC)C(=O)CN1C[C@H](c2ccc3c(c2)OCO3)[C@@H](C(=O)O)[C@@H]1CCC1CCCO1` (stereo partly drawn) [(2S,3R,4S)-4-Benzo[1,3]dioxol-5-yl-1-dibutylcarbamoylmethyl-2-[2-(tetrahydro-furan-2-yl)-ethyl]-pyrrolidine-3-carboxylic acid], the IC50 was over 100 µM.

As to `CCCCN(CCCC)C(=O)CN1C[C@H](c2ccc3c(c2)OCO3)[C@@H](C(=O)O)[C@@H]1CCCC1OCCO1` [(2S,3R,4S)-4-Benzo[1,3]dioxol-5-yl-1-dibutylcarbamoylmethyl-2-(3-[1,3]dioxolan-2-yl-propyl)-pyrrolidine-3-carboxylic acid], the IC50 came to 50 µM. As for `CCCCN(CCCC)C(=O)CN1C[C@H](c2ccc3c(c2)OCO3)[C@@H](C(=O)O)[C@@H]1CC(CCC)CCC` [(2S,3R,4S)-4-Benzo[1,3]dioxol-5-yl-1-dibutylcarbamoylmethyl-2-(2-propyl-pentyl)-pyrrolidine-3-carboxylic acid], the figure is 95 µM. `CCCCN(CCCC)C(=O)CN1C[C@H](c2ccc3c(c2)OCO3)[C@@H](C(=O)O)[C@@H]1CCn1ccccc1=O` [(2S,3R,4S)-4-Benzo[1,3]dioxol-5-yl-1-dibutylcarbamoylmethyl-2-[2-(2-oxo-2H-pyridin-1-yl)-ethyl]-pyrrolidine-3-carboxylic acid]: the IC50 was determined as 41 µM. Turning to `CCCCN(CCCC)C(=O)CN1C[C@H](c2ccc3c(c2)OCO3)[C@@H](C(=O)O)[C@@H]1CCC1CCCCO1` (stereo partly drawn) [(2S,3R,4S)-4-Benzo[1,3]dioxol-5-yl-1-dibutylcarbamoylmethyl-2-[2-(tetrahydro-pyran-2-yl)-ethyl]-pyrrolidine-3-carboxylic acid], the IC50 was 47.8 µM. As for `CCCCN(CCCC)C(=O)CN1C[C@H](c2ccc3c(c2)OCO3)[C@@H](C(=O)O)[C@@H]1CCc1ccco1` [(2S,3R,4S)-4-Benzo[1,3]dioxol-5-yl-1-dibutylcarbamoylmethyl-2-(2-furan-2-yl-ethyl)-pyrrolidine-3-carboxylic acid], the figure is 47 µM.
